The target of one data set is T1, PPARδ-RXRα heterodimer (Homo sapiens, UniProt Q03181).
T1 construct: expressed in transfected cells; host or cells: COS-1
T1 sequence (Q03181 1-441): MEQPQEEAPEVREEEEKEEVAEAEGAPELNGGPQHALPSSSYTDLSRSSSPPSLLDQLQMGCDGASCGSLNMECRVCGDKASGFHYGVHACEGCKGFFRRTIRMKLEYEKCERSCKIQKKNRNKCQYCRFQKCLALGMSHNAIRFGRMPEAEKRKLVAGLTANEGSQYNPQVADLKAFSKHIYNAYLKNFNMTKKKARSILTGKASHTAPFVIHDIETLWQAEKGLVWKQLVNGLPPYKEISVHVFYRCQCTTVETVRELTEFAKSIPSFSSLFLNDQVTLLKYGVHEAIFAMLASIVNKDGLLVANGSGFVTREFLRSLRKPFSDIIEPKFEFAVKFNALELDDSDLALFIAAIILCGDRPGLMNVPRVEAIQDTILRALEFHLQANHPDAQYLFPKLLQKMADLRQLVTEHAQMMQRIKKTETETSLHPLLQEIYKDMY
T1 sequence (P19793 1-462 partner): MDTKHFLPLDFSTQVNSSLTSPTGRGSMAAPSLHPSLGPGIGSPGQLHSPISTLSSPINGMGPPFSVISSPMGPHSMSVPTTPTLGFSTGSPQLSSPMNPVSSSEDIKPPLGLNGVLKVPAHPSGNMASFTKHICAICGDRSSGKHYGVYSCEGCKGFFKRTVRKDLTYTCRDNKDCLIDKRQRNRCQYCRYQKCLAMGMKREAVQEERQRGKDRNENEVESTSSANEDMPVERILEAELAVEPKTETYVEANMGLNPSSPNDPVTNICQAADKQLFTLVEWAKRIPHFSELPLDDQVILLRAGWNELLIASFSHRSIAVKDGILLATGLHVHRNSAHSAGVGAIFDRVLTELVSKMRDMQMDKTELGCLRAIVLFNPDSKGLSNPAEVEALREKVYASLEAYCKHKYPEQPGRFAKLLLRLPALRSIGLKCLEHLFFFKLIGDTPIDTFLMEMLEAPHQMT
Put plainly: PPARδ-RXRα heterodimer ligand activity, luciferase reporter in COS-1 transformant (Test Example 4). The class given is cell-based. The following applies: COS-1 transformant (hPPARδ, hRXRα, reporter), 36-48 hours, concentration for 50% of the maximum fold induction. Summed up:
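COS-1 cells transiently co-transfected with human PPARδ, human RXRα, PPRE-luciferase reporter and pRL-tk, then exposed to compound 36-48 h at 37 °C in DMEM with 0.1% fatty acid-free BSA. Luciferase read as fold induction over untreated; EC50 at 50% of maximal fold induction.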
A general note: A reporter such as luciferase makes a cellular process visible.

Each structure is given as a SMILES string.

For `CCC(CC)c1nn(-c2ccc(C(F)(F)F)cn2)cc1CCCOc1c(CC(=O)O)cccc1OC` [Example 212, [2-(3-{3-(1-ethylpropyl)-1-[5-(trifluoromethyl)-2-pyridyl]-1H-pyrazol-4-yl}propoxy)-3-methoxyphenyl]acetic acid], the melting point lay in the range of 100 to 101 °C. The molecule also showed an EC50 at PPARδ-RXRα heterodimer of 42 nM.
As to `CCOc1ccc(CC(=O)O)cc1OCCCc1cn(-c2ccc(C(F)(F)F)cn2)nc1C1CCCCC1` [Example 201, [3-(3-{3-cyclohexyl-1-[5-(trifluoromethyl)-2-pyridyl]-1H-pyrazol-4-yl}propoxy)-4-ethoxyphenyl]acetic acid], the melting point lay within 134 to 135 °C. At PPARδ-RXRα heterodimer, this molecule showed an EC50 of 1.2 nM.
In the same order, the values of `COc1ccc(CC(=O)O)cc1OCCCc1cn(-c2ccc(C(F)(F)F)cn2)nc1C1CCCCC1` [Example 304, [3-(3-{3-cyclohexyl-1-[5-(trifluoromethyl)-2-pyridinyl]-1H-pyrazol-4-yl}propoxy)-4-methoxyphenyl]acetic acid] are 117 to 118 °C and 5.7 nM.
On the same counts, the results for `CCc1cccc(CC(=O)O)c1OCCCc1cn(-c2ccc(C(F)(F)F)nn2)nc1C(C)C` [Example 245, [3-ethyl-2-(3-{3-isopropyl-1-[6-(trifluoromethyl)pyridazin-3-yl]-1H-pyrazol-4-yl}propoxy)phenyl]acetic acid] are 126 to 127 °C and 130 nM.
On the same counts, the results for `O=C(O)CCc1cc(OCCCc2cn(-c3ccc(C(F)(F)F)cn3)nc2-c2ccccc2)nn1-c1ccccc1` [Example 125, 3-[1-phenyl-3-(3-{3-phenyl-1-[5-(trifluoromethyl)-2-pyridyl]-1H-pyrazol-4-yl}propoxy)-1H-pyrazol-5-yl]propionic acid] are 175 to 176 °C and 1.5 nM.
Take `CCOc1nn(-c2ccc(C(F)(F)F)cn2)cc1CCCOc1cc(CCC(=O)O)n(-c2ccccc2)n1` [Example 42, 3-[3-(3-{3-ethoxy-1-[5-(trifluoromethyl)-2-pyridyl]-1H-pyrazol-4-yl}propoxy)-1-phenyl-1H-pyrazol-5-yl]propionic acid]: the melting point was 121 to 122 °C. In addition, the midpoint of the response on PPARδ-RXRα heterodimer, the EC50, lay at 1.9 nM.
On to `CCOc1nn(-c2ccc(C(F)(F)F)cn2)cc1CCCOc1ccc(CCC(=O)O)c(OC(C)C)c1` [Example 116, 3-[4-(3-{3-ethoxy-1-[5-(trifluoromethyl)-2-pyridinyl]-1H-pyrazol-4-yl}propoxy)-2-isopropoxyphenyl]propanoic acid], for which the melting point was in the range of 104 to 105 °C. The molecule further returned an EC50 on PPARδ-RXRα heterodimer of 0.6 nM.
On the same counts, the results for `CCC(CC)c1nn(-c2ccc(Cl)cn2)cc1CCCOc1c(CC(=O)O)cccc1OC` [Example 223, (2-{3-[1-(5-chloro-2-pyridyl)-3-(1-ethylpropyl)-1H-pyrazol-4-yl]propoxy}-3-methoxyphenyl)acetic acid] are 85 to 86 °C and 97 nM.
On the same counts, the results for `CCOc1nn(-c2ccc(C(F)(F)F)cn2)cc1CCCCOc1ccccc1CC(=O)O` [Example 137, [2-(4-{3-ethoxy-1-[5-(trifluoromethyl)-2-pyridyl]-1H-pyrazol-4-yl}butoxy)phenyl]acetic acid] are 109 to 110 °C and 9.6 nM.
In the same order, the values of `Cc1cccc(CC(=O)O)c1OCCCc1cn(-c2ccc(C(F)(F)F)cn2)nc1C1CCCCC1` [Example 316, [2-(3-{3-cyclohexyl-1-[5-(trifluoromethyl)-2-pyridinyl]-1H-pyrazol-4-yl}propoxy)-3-methylphenyl]acetic acid] are 184 to 185 °C and 9.9 nM.
Molecule `CCC(CC)c1nn(-c2ccc(C(F)(F)F)nn2)cc1CCCOc1c(C)cccc1CC(=O)O` [Example 340, [2-(3-{3-(1-ethylpropyl)-1-[6-(trifluoromethyl)pyridazin-3-yl]-1H-pyrazol-4-yl}propoxy)-3-methylphenyl]acetic acid] gave a melting point of 76 to 77 °C. Also, it took 45 nM to reach a half-maximal effect on PPARδ-RXRα heterodimer (EC50).
In the same order, the values of `CCc1cccc(CC(=O)O)c1OCCCc1cn(-c2ccc(C(F)(F)F)cn2)nc1C(C)C` [Example 227, [3-ethyl-2-(3-{3-isopropyl-1-[5-(trifluoromethyl)-2-pyridinyl]-1H-pyrazol-4-yl}propoxy)phenyl]acetic acid] are 155 to 156 °C and 54 nM.
In the same order, the values of `CCCc1nn(-c2ccc(C(F)(F)F)cn2)cc1CCCCOc1cc(CCC(=O)O)n(-c2ccccc2)n1` [Example 58, 3-[1-phenyl-3-(4-{3-propyl-1-[5-(trifluoromethyl)-2-pyridinyl]-1H-pyrazol-4-yl}butoxy)-1H-pyrazol-5-yl]propanoic acid] are 123 to 124 °C and 1.9 nM.
In turn, `CCOc1nn(-c2ccc(C(F)(F)F)cn2)cc1CCCOc1cccc(CC(=O)O)c1` [Example 30, [3-(3-{3-ethoxy-1-[5-(trifluoromethyl)-2-pyridyl]-1H-pyrazol-4-yl}propoxy)phenyl]acetic acid] showed a melting point of 134 to 135 °C. Also, at PPARδ-RXRα heterodimer, the midpoint of the response, the EC50, lay at 2.6 nM.
Molecule `CCCc1nn(-c2ccc(C(F)(F)F)cn2)cc1CCCOc1ccc(CCC(=O)O)c(OCC)c1` [Example 98, 3-[2-ethoxy-4-(3-{3-propyl-1-[5-(trifluoromethyl)-2-pyridinyl]-1H-pyrazol-4-yl}propoxy)phenyl]propanoic acid] registered a melting point of 119 to 120 °C. The EC50 at PPARδ-RXRα heterodimer is 1.2 nM.
On the same counts, the results for `COc1cccc(CC(=O)O)c1OCCCc1cn(-c2ccc(Cl)cn2)nc1C(C)C` [Example 311, (2-{3-[1-(5-chloro-2-pyridinyl)-3-isopropyl-1H-pyrazol-4-yl]propoxy}-3-methoxyphenyl)acetic acid] are 148 to 149 °C and 280 nM.
Molecule `CCCc1nn(-c2ccc(C(F)(F)F)cn2)cc1CCCOc1c(C)cccc1CC(=O)O` [Example 319, [3-methyl-2-(3-{3-propyl-1-[5-(trifluoromethyl)-2-pyridinyl]-1H-pyrazol-4-yl}propoxy)phenyl]acetic acid] showed a melting point of 134 to 135 °C. At PPARδ-RXRα heterodimer, the EC50 worked out at 5.1 nM.
`O=C(O)CCc1cc(OCCCc2cn(-c3ccc(C(F)(F)F)cn3)nc2C2CCCCC2)nn1-c1ccccc1` [Example 189, 3-[3-(3-{3-cyclohexyl-1-[5-(trifluoromethyl)-2-pyridyl]-1H-pyrazol-4-yl}propoxy)-1-phenyl-1H-pyrazol-5-yl]propionic acid] had a melting point of 182 to 183 °C. Further, the EC50 on PPARδ-RXRα heterodimer is 2.1 nM.
The molecule `CCC(CC)c1nn(-c2ccc(Br)cn2)cc1CCCOc1c(CC(=O)O)cccc1OC` [Example 351, (2-{3-[1-(5-bromo-2-pyridinyl)-3-(1-ethylpropyl)-1H-pyrazol-4-yl]propoxy}-3-methoxyphenyl)acetic acid] registered a melting point of 94 to 95 °C. Also, the half-maximal effective concentration (EC50) at PPARδ-RXRα heterodimer turned out to be 72 nM.
Molecule `CCCc1nn(-c2ccc(C(F)(F)F)cn2)cc1CCCOc1c(Br)cccc1CC(=O)O` [Example 237, [3-bromo-2-(3-{3-propyl-1-[5-(trifluoromethyl)-2-pyridinyl]-1H-pyrazol-4-yl}propoxy)phenyl]acetic acid] showed a melting point of 145 to 146 °C. The EC50 on PPARδ-RXRα heterodimer came to 6.1 nM.
The molecule `CCC(CC)c1nn(-c2ccc(C(F)(F)F)cn2)cc1CCCOc1c(C)cccc1CC(=O)O` [Example 213, [2-(3-{3-(1-ethylpropyl)-1-[5-(trifluoromethyl)-2-pyridyl]-1H-pyrazol-4-yl}propoxy)-3-methylphenyl]acetic acid] had a melting point of 125 to 126 °C. The molecule further registered an EC50 at PPARδ-RXRα heterodimer of 8.3 nM.
In the same order, the values of `CCOc1nn(-c2ccc(C(F)(F)F)cn2)cc1CCCOc1ccccc1CC(=O)O` [Example 31, (2-(3-{3-ethoxy-1-[5-(trifluoromethyl)-2-pyridyl]-1H-pyrazol-4-yl}propoxy)phenyl]acetic acid] are 83 to 84 °C and 9.6 nM.
`CCCc1nn(-c2ccc(C(F)(F)F)cn2)cc1CCCOc1cc(CCC(=O)O)n(-c2ccccc2)n1` [Example 43, 3-[1-phenyl-3-(3-{3-propyl-1-[5-(trifluoromethyl)-2-pyridyl]-1H-pyrazol-4-yl}propoxy)-1H-pyrazol-5-yl]propionic acid] displayed a melting point of 149 to 150 °C. Moreover, the EC50 on PPARδ-RXRα heterodimer is 3.7 nM.

As a reminder, the EC50 is the concentration that produces a half-maximal response. As usually defined, the melting point is the temperature of the solid-liquid transition.

Values taken from patent publication US20060148858A1, “1, 2-Azole derivatives with hypoglycemic and hypolipidemic activity” (priority 2002, published 2006).
